# Reference: patent US20140296137A1, “METHODS AND COMPOSITIONS FOR CONTROLLING ROTIFERS” (Los Alamos National Security, LLC, priority 2013, published 2014)
# Ends that are not written are not given here.
# Test system: Chlamydomonas reinhardtii
# Experiment: not given
# Details: not given
# Procedure: (§1) This example provides the minimal inhibitory concentration (MIC) of antimicrobial peptides (AMPs) for algae. […] Therefore, the tolerance of algae to the AMPs listed in Table 2 of Example 1 was measured.
# (§2) Briefly, the algae viability assay used herein measured the “health” of the algae cultures by looking at the color of the algae. […] A visual assay was used to determine the MIC for the individual AMPs on the algae. In each case, a light microscope with 20× magnification was used to observe algae color.
# (§3) The effect of insecticidal and non-insecticidal AMPs on three different algae species was measured. The three algae species were Auxenochlorella protothecoides, Chlorella sorokiniana and Chlamydomonas reinhardtii.
# (§4) Algae cultures were initiated in 96-well plates at an OD 750 of approximately 0.1. […] The antibiotics hygromycin and paromycin served as positive controls for inhibiting and/or reducing the growth rate of algae. […] The algae cultures were monitored by preparing microscopy slides with a small sample taken from the individual wells. The algae slides were then visualized under a 20× magnification microscope for algae viability as measured by algae color.
row,Sequence,Minimal Inhibitory Concentration (MIC) Chlamydomonas reinhardtii [µM]
1,FFHHIFRGIVHVGKTIHRLVTG [Piscidin 1],12.2

# Same assay, conditions: 5-6 days, room temperature, 96-well, algae colour under 20× microscope; ND = AMP killed all the algae
row,Sequence,Minimal Inhibitory Concentration (MIC) Chlamydomonas reinhardtii [µM]
1,WLGSALKIGAKLLPSVVGLFKKKKQ [Ponericin W1],11.5
2,KWKLFKKIGIGKFLHWAKKF [W16-CA(1-8)-MA(1-12)],12.5
3,GWKDWLNKGKEWLKKKGPGIMKAALKAATQ [Ponericin G3],9.2
4,"IWLTALKFLGKHAAKHLAKQQLSKL [Lycotoxin-1, Lycotoxin I]",22
5,"FLPLIGKVLSGIL [Temporin F, Temporin-F]",91.3
6,FSFKRLKGFAKKLWNSKLARKIRTKGLKYVKNFAKDMLSEGEEAPPAAEPPVEAPQ [Im-1],9.9
7,FWGALIKGAAKLIPSVVGLFKKKQ [Ponericin W5],12
8,GWKDWAKKAGGWLKKKGPGMAKAALKAAMQ [Ponericin G1],19.5
9,GIWGTALKWGVKLLPKLVGMAQTKKQ [Ponericin W4],11
10,GIWGTLAKIGIKAVPRVISMLKKKKQ [Ponericin W3],5.5
11,FIGTALGIASAIPAIVKLFK [Ponericin W6],61.6

# Test system: Chlorella protothecoides
# Experiment: not given
# Details: not given
# Procedure: as §1, §2, §3, §4
row,Sequence,Minimal Inhibitory Concentration (MIC) Chlorella protothecoides [µM]
1,FFHHIFRGIVHVGKTIHRLVTG [Piscidin 1],12.2

# Same assay, conditions: 5-6 days, room temperature, 96-well, algae colour under 20× microscope; ND = AMP killed all the algae
row,Sequence,Minimal Inhibitory Concentration (MIC) Chlorella protothecoides
1,WLGSALKIGAKLLPSVVGLFKKKKQ [Ponericin W1],23.1 µM
2,KWKLFKKIGIGKFLHWAKKF [W16-CA(1-8)-MA(1-12)],ND (kills)
3,GWKDWLNKGKEWLKKKGPGIMKAALKAATQ [Ponericin G3],37 µM
4,"IWLTALKFLGKHAAKHLAKQQLSKL [Lycotoxin-1, Lycotoxin I]",44 µM
5,"FLPLIGKVLSGIL [Temporin F, Temporin-F]",365 µM
6,FSFKRLKGFAKKLWNSKLARKIRTKGLKYVKNFAKDMLSEGEEAPPAAEPPVEAPQ [Im-1],9.9 µM
7,FWGALIKGAAKLIPSVVGLFKKKQ [Ponericin W5],12 µM
8,GWKDWAKKAGGWLKKKGPGMAKAALKAAMQ [Ponericin G1],78 µM
9,GIWGTALKWGVKLLPKLVGMAQTKKQ [Ponericin W4],43.8 µM
10,GIWGTLAKIGIKAVPRVISMLKKKKQ [Ponericin W3],21.8 µM
11,FIGTALGIASAIPAIVKLFK [Ponericin W6],No Affect

# Test system: Chlorella sorokiniana
# Experiment: not given
# Details: not given
# Procedure: as §1, §2, §3, §4
row,Sequence,Minimal Inhibitory Concentration (MIC) Chlorella sorokiana [µM]
1,FFHHIFRGIVHVGKTIHRLVTG [Piscidin 1],24.3

# Same assay, conditions: 5-6 days, room temperature, 96-well, algae colour under 20× microscope; ND = AMP killed all the algae
row,Sequence,Minimal Inhibitory Concentration (MIC) Chlorella sorokiana [µM]
1,WLGSALKIGAKLLPSVVGLFKKKKQ [Ponericin W1],46.1
2,KWKLFKKIGIGKFLHWAKKF [W16-CA(1-8)-MA(1-12)],25
3,GWKDWLNKGKEWLKKKGPGIMKAALKAATQ [Ponericin G3],37
4,"IWLTALKFLGKHAAKHLAKQQLSKL [Lycotoxin-1, Lycotoxin I]",88
5,"FLPLIGKVLSGIL [Temporin F, Temporin-F]",730.7
6,FSFKRLKGFAKKLWNSKLARKIRTKGLKYVKNFAKDMLSEGEEAPPAAEPPVEAPQ [Im-1],19.7
7,FWGALIKGAAKLIPSVVGLFKKKQ [Ponericin W5],24
8,GWKDWAKKAGGWLKKKGPGMAKAALKAAMQ [Ponericin G1],155.8
9,GIWGTALKWGVKLLPKLVGMAQTKKQ [Ponericin W4],87.6
10,GIWGTLAKIGIKAVPRVISMLKKKKQ [Ponericin W3],87.3
11,FIGTALGIASAIPAIVKLFK [Ponericin W6],492.5

# Test system: Adineta vaga
# Experiment: not given
# Type: in vivo
# Design: key to the marks not given beside the values
# Details: AMP 0.5 mg/mL, 24 hr time point, room temperature, visual motility score
# From the text: (§5) Briefly, the rotifer motility assay used herein in the presence of a biocontrol agent (e.g., AMP) may be used as a measure of relative rotifer viability and competency. Rotifer diet, of which algae is considered to be an important food source, is one of the key environmental factors that impact the growth and multiplication of rotifers. In effect, the inability of a rotifer to be mobile (i.e., inability to swim toward a food source and/or to have mobile cilia that help trap food) prevents the rotifer from ingesting sufficient nutrients to further grow and reproduce. Thus, any approach that reduces and/or inhibits rotifer motility has a significant impact on an individual rotifer and therefore rotifer populations. With respect to algae cultures, reducing and/or inhibiting rotifer motility prevents and/or reduces any negative impact rotifers have on algae cultures (e.g., open pond systems for algae biomass and biofuel production). In other words, reducing and/or inhibiting rotifer motility reduces and/or prevents rotifers (e.g., infestations) from ingesting and consequently damaging algae cultures use in biofuel production.
# (§6) The effect of the insecticidal and non-insecticidal AMPs of Table 2 (Example 1) on three different rotifer species was measured. The three rotifer species were Adineta vaga and Philodina acuticornis (class Bdelloid rotifers), and Brachionus (Monogononta class). A visual motility assay was used to determine the impact of the individual AMPs on rotifer viability. In each case, a light microscope with 20× magnification was used to observe rotifer motility (activity). […] FIGS. 1A, 1C and 1E show a 20× magnification of Adineta vaga, Philodina acuticornis and Brachionus (untreated), respectively. FIGS. 1B, 1D and 1F show a 20× magnification of Adineta vaga, Philodina acuticornis and Brachionus (AMP treated), respectively.
# (§7) Rotifer cultures were initiated in 12-well or 24-well plates at a density of approximately 100-200 rotifers/mL. The 12-well plates contained a volume of 1 mL per well, and the 24-well plates contained a volume of about 0.25 mL to about 0.35 mL per well. Individual rotifer cultures (individual wells) were incubated with a select AMP at a concentration of 0.5 mg/mL (or a range of about 78 μM to about 365 μM) for 18, 21 and 24 hours at room temperature. The rotifer cultures were monitored by preparing microscopy slides with a small sample taken from the individual wells. The slides were then visualized under a 20× magnification microscope for rotifer motility. […] The scoring system was based on observing a subset of the rotifer population from each well. The impact on the subset of rotifers observed served as a representative of the impact on the entire rotifer population for that particular AMP treatment.
# (§8) A summary of the motility assay (or “Kill Assay”) for each insecticidal and non-insecticidal AMP incubated with the three different rotifer species for the 24 hour time point is provided below in Table 5 (insecticidal AMPs) and Table 6 (non-insecticidal AMPs). The 18 and 21 hour time points gave similar results to the 24 hour time point.
row,Sequence,“Kill” Efficiency Adineta vaga
1,WLGSALKIGAKLLPSVVGLFKKKKQ [Ponericin W1],+++
2,KWKLFKKIGIGKFLHWAKKF [W16-CA(1-8)-MA(1-12)],+++
3,GWKDWLNKGKEWLKKKGPGIMKAALKAATQ [Ponericin G3],+++
4,"IWLTALKFLGKHAAKHLAKQQLSKL [Lycotoxin-1, Lycotoxin I]",+++
5,FFHHIFRGIVHVGKTIHRLVTG [Piscidin 1],+++
6,FSFKRLKGFAKKLWNSKLARKIRTKGLKYVKNFAKDMLSEGEEAPPAAEPPVEAPQ [Im-1],+++
7,FWGALIKGAAKLIPSVVGLFKKKQ [Ponericin W5],+++
8,GWKDWAKKAGGWLKKKGPGMAKAALKAAMQ [Ponericin G1],+++
9,GIWGTALKWGVKLLPKLVGMAQTKKQ [Ponericin W4],+++
10,GIWGTLAKIGIKAVPRVISMLKKKKQ [Ponericin W3],+++
11,FIGTALGIASAIPAIVKLFK [Ponericin W6],++

# Test system: Philodina acuticornis
# Experiment: not given
# Type: in vivo
# Design: key to the marks not given beside the values
# Details: AMP 0.5 mg/mL, 24 hr time point, room temperature, visual motility score
# From the text: as §5, §6, §7, §8
row,Sequence,“Kill” Efficiency Philodina
1,WLGSALKIGAKLLPSVVGLFKKKKQ [Ponericin W1],+++
2,KWKLFKKIGIGKFLHWAKKF [W16-CA(1-8)-MA(1-12)],+++
3,GWKDWLNKGKEWLKKKGPGIMKAALKAATQ [Ponericin G3],+++
4,"IWLTALKFLGKHAAKHLAKQQLSKL [Lycotoxin-1, Lycotoxin I]",+++
5,FFHHIFRGIVHVGKTIHRLVTG [Piscidin 1],+++
6,FSFKRLKGFAKKLWNSKLARKIRTKGLKYVKNFAKDMLSEGEEAPPAAEPPVEAPQ [Im-1],+++
7,FWGALIKGAAKLIPSVVGLFKKKQ [Ponericin W5],+++
8,GWKDWAKKAGGWLKKKGPGMAKAALKAAMQ [Ponericin G1],+++
9,GIWGTALKWGVKLLPKLVGMAQTKKQ [Ponericin W4],+++
10,GIWGTLAKIGIKAVPRVISMLKKKKQ [Ponericin W3],+++
11,FIGTALGIASAIPAIVKLFK [Ponericin W6],++

# Test system: Brachionus
# Experiment: not given
# Type: in vivo
# Details: AMP 0.5 mg/mL, 24 hr time point, room temperature, visual motility score
# From the text: as §5, §6, §7, §8
row,Sequence,“Kill” Efficiency Brachionus
1,WLGSALKIGAKLLPSVVGLFKKKKQ [Ponericin W1],+++
2,KWKLFKKIGIGKFLHWAKKF [W16-CA(1-8)-MA(1-12)],+
3,GWKDWLNKGKEWLKKKGPGIMKAALKAATQ [Ponericin G3],+++
4,"IWLTALKFLGKHAAKHLAKQQLSKL [Lycotoxin-1, Lycotoxin I]",+++
5,FFHHIFRGIVHVGKTIHRLVTG [Piscidin 1],+++
6,FSFKRLKGFAKKLWNSKLARKIRTKGLKYVKNFAKDMLSEGEEAPPAAEPPVEAPQ [Im-1],+++
7,FWGALIKGAAKLIPSVVGLFKKKQ [Ponericin W5],+++
8,GWKDWAKKAGGWLKKKGPGMAKAALKAAMQ [Ponericin G1],+++
9,GIWGTALKWGVKLLPKLVGMAQTKKQ [Ponericin W4],+++
10,GIWGTLAKIGIKAVPRVISMLKKKKQ [Ponericin W3],+++
11,FIGTALGIASAIPAIVKLFK [Ponericin W6],+++

# Test system: three algae species
# Experiment: Algae viability assay, summary statements over the three algae species
# Type: cell-based
# Details: comparison of Tables 3 and 4 with Tables 5 and 6
# Procedure: as §1, §2, §3
# Algae cultures were initiated in 96-well plates at an OD 750 of approximately 0.1. […] The antibiotics hygromycin and paromycin served as positive controls for inhibiting and/or reducing the growth rate of algae. Algae cultured in water or media served as a negative control (i.e., no effect on growth). The algae cultures were monitored by preparing microscopy slides with a small sample taken from the individual wells. The algae slides were then visualized under a 20× magnification microscope for algae viability as measured by algae color. […]
row,Sequence,tolerance of algae to the AMP (in words)
1,"FLPLIGKVLSGIL [Temporin F, Temporin-F]",highly tolerated by algae
2,FIGTALGIASAIPAIVKLFK [Ponericin W6],highly tolerated by algae

# Test system: three rotifer species
# Experiment: Rotifer visual motility assay, summary statements over the three rotifer species
# Type: in vivo, Adineta vaga, Philodina acuticornis and Brachionus
# Details: AMP 0.5 mg/mL
# From the text: as §5, with “In other words, reducing and/or inhibiting rotifer motility reduces and/or prevents rotifers (e.g., infestations) from ingesting and consequently damaging algae cultures use in biofuel production.” left out
# The effect of the insecticidal and non-insecticidal AMPs of Table 2 (Example 1) on three different rotifer species was measured. […]
# Rotifer cultures were initiated in 12-well or 24-well plates at a density of approximately 100-200 rotifers/mL. […] The rotifer cultures were monitored by preparing microscopy slides with a small sample taken from the individual wells. […]
row,Sequence,negative impact on rotifer motility (in words)
1,"FLPLIGKVLSGIL [Temporin F, Temporin-F]",high negative impact
2,FIGTALGIASAIPAIVKLFK [Ponericin W6],high negative impact
